Results: the NIST ThermoML archive (doi:10.1016/j.jct.2004.10.005)
Numbers after ± are expanded uncertainties.

Assay: molar heat capacity at saturation pressure
Settings: Vacuum adiabatic calorimetry

BrC12CC3CC(CC(C3)C1)C2 [1-bromotricyclo[3.3.1.1(3,7)]decane]
Settings	molar heat capacity [J/K/mol]
127.91 K, Crystal 3	86.56 ± 0.4
131.28 K, Crystal 3	88.26 ± 0.41
134.63 K, Crystal 3	90.38 ± 0.41
137.93 K, Crystal 3	91.96 ± 0.42
141.17 K, Crystal 3	93.89 ± 0.43
144.35 K, Crystal 3	95.86 ± 0.43
147.49 K, Crystal 3	97.33 ± 0.44
150.64 K, Crystal 3	99.37 ± 0.45
153.81 K, Crystal 3	101.4 ± 0.5
156.99 K, Crystal 3	103 ± 0.5
160.16 K, Crystal 3	104.9 ± 0.5
160.53 K, Crystal 3	105.5 ± 0.5
163.7 K, Crystal 3	107.4 ± 0.5
166.86 K, Crystal 3	109.4 ± 0.5
169.99 K, Crystal 3	111.2 ± 0.5
173.09 K, Crystal 3	113.3 ± 0.5
176.19 K, Crystal 3	115.1 ± 0.6
179.34 K, Crystal 3	117.2 ± 0.6
182.56 K, Crystal 3	119.4 ± 0.6
185.78 K, Crystal 3	121.5 ± 0.6
189.07 K, Crystal 3	123.6 ± 0.6
192.43 K, Crystal 3	126.2 ± 0.6
195.86 K, Crystal 3	128.7 ± 0.6
199.38 K, Crystal 3	130.9 ± 0.6
202.85 K, Crystal 3	133.7 ± 0.6
206.29 K, Crystal 3	135.9 ± 0.6
209.76 K, Crystal 3	138.8 ± 0.6
213.19 K, Crystal 3	141.4 ± 0.6
216.58 K, Crystal 3	143.7 ± 0.6
220.01 K, Crystal 3	146.7 ± 0.7
223.4 K, Crystal 3	149.2 ± 0.7
226.82 K, Crystal 3	152.2 ± 0.7
230.32 K, Crystal 3	155.2 ± 0.7
230.97 K, Crystal 3	155.8 ± 0.7
234.32 K, Crystal 3	158.8 ± 0.7
237.7 K, Crystal 3	162.3 ± 0.7
241 K, Crystal 3	166.2 ± 0.7
241.09 K, Crystal 3	165.9 ± 0.7
244.38 K, Crystal 3	169.3 ± 0.7
244.57 K, Crystal 3	169.7 ± 0.7
247.65 K, Crystal 3	173 ± 0.8
248.16 K, Crystal 3	173.6 ± 0.8
251.11 K, Crystal 3	177.1 ± 0.8
251.71 K, Crystal 3	177.8 ± 0.8
254.61 K, Crystal 3	181.5 ± 0.8
255.15 K, Crystal 3	182.1 ± 0.8
257.99 K, Crystal 3	186.2 ± 0.8
258.5 K, Crystal 3	187.1 ± 0.8
261.32 K, Crystal 3	192.1 ± 0.8
261.93 K, Crystal 3	193.3 ± 0.8
264.6 K, Crystal 3	198.2 ± 0.9
265.32 K, Crystal 3	200.1 ± 0.9
267.83 K, Crystal 3	205.5 ± 0.9
268.59 K, Crystal 3	207.2 ± 0.9
271.04 K, Crystal 3	214.7 ± 1
271.85 K, Crystal 3	217.2 ± 1
274.2 K, Crystal 3	227.6 ± 1
275.09 K, Crystal 3	231.6 ± 1
277.23 K, Crystal 3	248.5 ± 1.1
278.12 K, Crystal 3	258.4 ± 1.1
279.76 K, Crystal 3	284.9 ± 1.3
280.08 K, Crystal 3	308.9 ± 1.5
280.17 K, Crystal 3	297.9 ± 1.5
280.56 K, Crystal 3	309.4 ± 1.7
280.94 K, Crystal 3	336.3 ± 2.2
281.3 K, Crystal 3	377.6 ± 4.5
281.63 K, Crystal 3	422.2 ± 5.2
281.93 K, Crystal 3	523.4 ± 5.1
282.18 K, Crystal 3	643.2 ± 6.6
282.41 K, Crystal 2	586.3 ± 21
282.52 K, Crystal 2	470.3 ± 14
282.69 K, Crystal 2	384.2 ± 7.3
283.04 K, Crystal 2	278.4 ± 3.5
283.48 K, Crystal 2	248.5 ± 1.6
283.93 K, Crystal 2	226.3 ± 1.1
284.68 K, Crystal 2	219.3 ± 1
285.09 K, Crystal 2	222.5 ± 1
286.24 K, Crystal 2	214.2 ± 1
288.26 K, Crystal 2	209.5 ± 0.9
290.59 K, Crystal 2	211.1 ± 0.9
291.43 K, Crystal 2	211.7 ± 0.9
293.15 K, Crystal 2	212.4 ± 0.9
294.62 K, Crystal 2	213.4 ± 0.9
295.8 K, Crystal 2	213.7 ± 0.9
298.44 K, Crystal 2	215.6 ± 0.9
298.96 K, Crystal 2	215.9 ± 0.9
301.06 K, Crystal 2	217.3 ± 0.9
303.6 K, Crystal 2	220.7 ± 1
306.07 K, Crystal 2	236.7 ± 1.3
308.13 K, Crystal 2	437.7 ± 2.7
312.39 K, Crystal 1	249 ± 1
314.9 K, Crystal 1	250.6 ± 1.1
314.98 K, Crystal 1	251.1 ± 1.1
317.39 K, Crystal 1	253.5 ± 1.1
317.63 K, Crystal 1	254 ± 1
